# Patent publication US9035052B2, “Compositions of azimilide dihydrochloride” (WARNER CHILCOTT COMPANY, LLC, priority 2006, dated 2015)
# Legend:
# [1] = Stability / water uptake of the solid state forms on exposure to relative humidity; assay type: physicochemical
# [2] = Apparent water solubility and dissolution of the solid state forms
smiles,measurement,setting,value
"CN1CCN(CCCCN2C(=O)CN(/N=C/c3ccc(-c4ccc(Cl)cc4)o3)C2=O)CC1.Cl.Cl [hemi-hydrate, (E)-1-[[[5-(4-chlorophenyl)-2-furanyl]methylene]amino]-3-[4-(4-methyl-1-piperazinyl)butyl]-2,4-imidazolidinedione dihydrochloride]",water content stability,"[1]; room temperature, relative humidity range of 12% to 85% RH",stable
same,dissolution rate compared with the anhydrate form,[2]; water,more rapid
same,solubility,"[2]; water, apparent water solubility, room temperature",~170 mg/mL
"CN1CCN(CCCCN2C(=O)CN(/N=C/c3ccc(-c4ccc(Cl)cc4)o3)C2=O)CC1.Cl.Cl [isopropanol solvate, (E)-1-[[[5-(4-chlorophenyl)-2-furanyl]methylene]amino]-3-[4-(4-methyl-1-piperazinyl)butyl]-2,4-imidazolidinedione dihydrochloride]",solid form conversion on humidity exposure,[1]; 85% relative humidity,converts to the anhydrate form within days to weeks
same,stability upon exposure to humidity,[1]; exposure to humidity,not stable
same,apparent water solubility,"[2]; water, room temperature, dihydrochloride",220 mg/mL
"CN1CCN(CCCCN2C(=O)CN(/N=C/c3ccc(-c4ccc(Cl)cc4)o3)C2=O)CC1.Cl.Cl [anhydrate, (E)-1-[[[5-(4-chlorophenyl)-2-furanyl]methylene]amino]-3-[4-(4-methyl-1-piperazinyl)butyl]-2,4-imidazolidinedione dihydrochloride]",hygroscopicity (water uptake),"[1]; room temperature, 85% relative humidity, up to 4 weeks",no evidence of water uptake
same,solubility as per the USP definition of solubility,[2],freely soluble
same,solubility,[2]; water,160 mg/mL
